Test results published in patent US10597388B2, “Pyridazinone herbicides” (FMC CORPORATION, priority 2014, dated 2020).
Read-outs that look alike come from different tables or passages of the source.

Legend:
Format in all cases: in vivo
[1] = system: barnyardgrass (Echinochloa crus-galli); test: Test A greenhouse herbicide test, pre- and postemergence; details: for pest or weed control at 125 g/ha / pest or weed control at 500 g/ha: Echinochloa crus-galli, 240 h
Summary of the method: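 Visual injury ratings, 0 (no effect) to 100 (complete control), versus untreated plants after roughly 10 d in a greenhouse. Compounds, formulated in a surfactant-containing non-phytotoxic solvent, were sprayed on loam–sand soil after sowing (pre) or on one- to two-leaf plants 2–10 cm tall (post).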

[2] = system: blackgrass (Alopecurus myosuroides); test: Test A greenhouse herbicide test, postemergence; details: for pest or weed control at 125 g/ha / pest or weed control at 500 g/ha: Alopecurus myosuroides, post-emergence, 240 h; for pest or weed control at 125 g/ha: read-out: Plant response rating, Blackgrass; for pest or weed control at 500 g/ha: 0 is no effect, 100 is complete control, read-out: Blackgrass plant response rating
Summary of the method: (§1)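 Scores are visual injury ratings from 0 (no effect) to 100 (complete control) versus untreated plants, taken roughly 10 d after treatment in the greenhouse. Treatment was postemergence, on one- to two-leaf plants 2–10 cm high growing in a loam soil/sand mix.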

[3] = system: galium (catchweed bedstraw, Galium aparine); test: Test A greenhouse herbicide test, postemergence; details: for pest or weed control at 125 g/ha / pest or weed control at 500 g/ha: Galium, post-emergence, 240 h; for pest or weed control at 125 g/ha: read-out: Plant response rating, Galium; for pest or weed control at 500 g/ha: 0 is no effect, 100 is complete control, read-out: Galium plant response rating
Summary of the method: as §1

[4] = system: barnyardgrass (Echinochloa crus-galli); test: Test B flooded paddy test; details: 250 g ai/ha, Flood, visual rating on scale of 0 to 100 where 0 is no effect and 100 is complete control, 13 to 15 d after treatment; for pest or weed control at 250 g/ha: Echinochloa crus-galli, 360 h, read-out: Plant response rating, Barnyardgrass
Summary of the method: (§2)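 Ratings use a 0-100 visual scale, where 100 is complete control, and compare treated plants with controls after 13 to 15 d of greenhouse growth. Compound went straight into paddy water kept 3 cm over the soil surface, applied to seedlings at the 2-leaf stage.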

[5] = system: ducksalad (Heteranthera limosa); test: Test B flooded paddy test; details: 250 g ai/ha, Flood, visual rating on scale of 0 to 100 where 0 is no effect and 100 is complete control, 13 to 15 d after treatment; for pest or weed control at 250 g/ha: Heteranthera limosa, 360 h, read-out: Plant response rating, Ducksalad
Summary of the method: as §2

rice (Oryza sativa) = test: Test B flooded paddy test; details: 250 g ai/ha, Flood, visual rating on scale of 0 to 100 where 0 is no effect and 100 is complete control, 13 to 15 d after treatment; for plant injury at 250 g/ha: Oryza sativa, 360 h, read-out: Plant response rating, Rice
Summary of the method: as §2

[6] = system: sedge, umbrella (small-flower umbrella sedge, Cyperus difformis); test: Test B flooded paddy test; details: 250 g ai/ha, Flood, visual rating on scale of 0 to 100 where 0 is no effect and 100 is complete control, 13 to 15 d after treatment; for pest or weed control at 250 g/ha: Cyperus difformis, 360 h, read-out: Plant response rating, Sedge, Umbrella
Summary of the method: as §2

[7] = system: chickweed (common chickweed, Stellaria media); test: Test C greenhouse herbicide test, postemergence
Summary of the method: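 Ratings are visual scores from 0 (no effect) to 100 (complete control), made against controls 13–15 d after treatment. Postemergence sprays were applied in the greenhouse to plants 2–18 cm tall (1- to 4-leaf stage) in peat-moss/vermiculite potting medium.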

[8] = post-emergence, Postemergence, 125 g ai/ha, visual rating after approx. 10 d, 0 to 100 scale (0 no effect, 100 complete control), read-out: Plant response rating, Barnyardgrass
[9] = post-emergence, Postemergence, 500 g ai/ha, 0 to 100 scale, 0 is no effect, 100 is complete control, read-out: Barnyardgrass plant response rating
[10] = pre-emergence, Preemergence, 125 g ai/ha, 0 to 100 scale where 0 is no effect and 100 is complete control, read-out: Barnyardgrass plant response rating
[11] = pre-emergence, Preemergence, 500 g ai/ha, 0 to 100 scale, 0 no effect, 100 complete control, read-out: Plant response rating, Barnyardgrass
[12] = 125 g ai/ha, visual rating after approx. 10 d, 0 to 100 scale (0 no effect, 100 complete control)
[13] = Postemergence, 31 g ai/ha, 0 to 100 scale (0 no effect, 100 complete control)
[14] = Postemergence, 125 g ai/ha, scale 0 to 100, 0 is no effect, 100 is complete control
[15] = Postemergence, 250 g ai/ha, scale 0 to 100, 0 no effect, 100 complete control, 13 to 15 d
[16] = postemergence, 62 g ai/ha, scale 0 to 100, 0 no effect, 100 complete control
[17] = 125 g ai/ha, 0 to 100 scale where 0 is no effect and 100 is complete control
[18] = Postemergence, 125 g ai/ha, 0 to 100 scale where 0 is no effect and 100 is complete control
[19] = Postemergence, 500 g ai/ha, visual rating after approx. 10 d, 0 to 100 scale (0 no effect, 100 complete control)
[20] = Preemergence, 125 g ai/ha, 0 to 100 scale where 0 is no effect and 100 is complete control
[21] = Preemergence, 500 g ai/ha, 0 to 100 scale where 0 is no effect and 100 is complete control
[22] = 500 g ai/ha, visual rating after approx. 10 d, 0 to 100 scale (0 no effect, 100 complete control)
[23] = 125 g ai/ha, 0 to 100 scale, 0 no effect, 100 complete control

Row | SMILES | pest or weed control at 500 g/ha [1, 9] | pest or weed control at 125 g/ha [1, 10] | pest or weed control at 500 g/ha [1, 11] | pest or weed control at 500 g/ha ([2]; 500 g ai/ha, 0 to 100 scale) | pest or weed control at 500 g/ha ([3]; 500 g ai/ha, 0 to 100 scale) | pest or weed control at 250 g/ha [4] | pest or weed control at 250 g/ha [5] | plant injury at 250 g/ha (rice (Oryza sativa)) | pest or weed control at 250 g/ha [6] | Plant response rating, Barnyardgrass [1, 18] | Plant response rating, Barnyardgrass [1, 19] | Barnyardgrass plant response rating [1, 20] | Plant response rating, Barnyardgrass [1, 21] | Plant response rating, Blackgrass [2, 17] | Plant response rating, Blackgrass [2, 22] | Plant response rating, Galium [3, 22] | Plant response rating, Barnyardgrass [4] | Plant response rating, Ducksalad [5] | Plant response rating, Rice (rice (Oryza sativa)) | Plant response rating, Sedge, Umbrella [6] | further results
1 | CC(=O)Oc1c(C)nn(C)c(=O)c1-c1c(C)oc2ccc(C)cc12 [Compound 14, 5-(acetyloxy)-4-(2,5-dimethyl-3-benzofuranyl)-2,6-dimethyl-3(2H)-pyridazinone] | 70% | 0% | 40% | 30% | 90% | 0% | 0% | 0% | 0% | – | – | – | – | – | – | – | – | – | – | – | pest or weed control at 125 g/ha [1, 8]: 10%; pest or weed control at 125 g/ha [2, 12]: 20%; pest or weed control at 125 g/ha [3, 12]: 80%; Chickweed plant response rating [7, 13]: 90; Plant response rating, Chickweed [7, 14]: 90; Plant response rating, Chickweed [7, 15]: 90; Chickweed plant response rating [7, 16]: 90
2 | CC(=O)Oc1c(C)nn(C)c(=O)c1-c1c(C)oc2c(C)cc(C)cc12 [Compound 16, 5-(acetyloxy)-2,6-dimethyl-4-(2,5,7-trimethyl-3-benzofuranyl)-3(2H)-pyridazinone] | 90% | 10% | 70% | 30% | 100% | 0% | 30% | 0% | 0% | – | – | – | – | – | – | – | – | – | – | – | pest or weed control at 125 g/ha [1, 8]: 20%; pest or weed control at 125 g/ha [2, 12]: 10%; pest or weed control at 125 g/ha [3, 12]: 90%; Chickweed plant response rating [7, 13]: 75; Plant response rating, Chickweed [7, 14]: 90; Plant response rating, Chickweed [7, 15]: 90; Chickweed plant response rating [7, 16]: 80
3 | COc1nn(C)c(=O)c(-c2c(C)c(C)cc3ccccc23)c1O [Compound 46, 4-(2,3-dimethyl-1-naphthalenyl)-5-hydroxy-6-methoxy-2-methyl-3(2H)-pyridazinone] | 80% | 20% | 60% | 70% | 90% | 0% | 0% | 0% | 0% | – | – | – | – | – | – | – | – | – | – | – | pest or weed control at 125 g/ha ([1]; post-emergence, Postemergence, 125 g ai/ha, 0 to 100 scale where 0 is no effect and 100 is complete control, read-out: Plant response rating, Barnyardgrass): 20%; pest or weed control at 125 g/ha [2, 17]: 20%; pest or weed control at 125 g/ha [3, 17]: 70%
4 | CCC(=O)Oc1c(C)nn(C)c(=O)c1-c1ccc(Br)c2ccccc12 [Compound 133] | – | – | – | – | – | – | – | – | – | 20 | 90 | 20 | 50 | 60 | 60 | 100 | 0 | 0 | 20 | 0 | Plant response rating, Galium [3, 17]: 100
5 | COC(=O)Oc1c(Br)nn(C)c(=O)c1-c1c(C)ccc2ccccc12 [Compound 137] | – | – | – | – | – | – | – | – | – | 70 | 100 | 90 | 100 | 90 | 100 | 100 | 25 | 40 | 0 | 65 | Plant response rating, Galium [3, 17]: 100
6 | COc1nn(C)c(=O)c(-c2c(C)ccc3ccccc23)c1OC(C)=O [Compound 138] | – | – | – | – | – | – | – | – | – | 20 | 100 | 10 | 100 | 80 | 90 | 100 | 0 | 0 | 0 | 0 | Plant response rating, Galium [3, 17]: 100
7 | Cc1ccc2ccccc2c1-c1c(OC(=O)N2CCOCC2)c(Br)nn(C)c1=O [Compound 176] | – | – | – | – | – | – | – | – | – | – | 10 | – | 10 | – | 30 | 100 | 0 | 0 | 0 | 0 | Plant response rating, Barnyardgrass ([1]; Postemergence, 125 g ai/ha, 0 to 100 scale, 0 no effect, 100 complete control): 0; Plant response rating, Barnyardgrass ([1]; Preemergence, 125 g ai/ha, visual injury rating, 0 to 100 scale (0 no effect, 100 complete control), approx. 10 d): 0; Plant response rating, Blackgrass [2, 23]: 30; Plant response rating, Galium [3, 23]: 90
